Measured values as given in paper PMC10853753, “Structure Prediction and Genome Mining‐Aided Discovery of the Bacterial C‐Terminal Tryptophan Prenyltransferase PalQ” (Advanced Science, 2023).

Target: T1, PalQ (Paenibacillus alvei, UniProt A0ABT4H1V4)
T1 construct: gene M5X12_20665; homodimer by size exclusion chromatography
T1 sequence (A0ABT4H1V4 1-312): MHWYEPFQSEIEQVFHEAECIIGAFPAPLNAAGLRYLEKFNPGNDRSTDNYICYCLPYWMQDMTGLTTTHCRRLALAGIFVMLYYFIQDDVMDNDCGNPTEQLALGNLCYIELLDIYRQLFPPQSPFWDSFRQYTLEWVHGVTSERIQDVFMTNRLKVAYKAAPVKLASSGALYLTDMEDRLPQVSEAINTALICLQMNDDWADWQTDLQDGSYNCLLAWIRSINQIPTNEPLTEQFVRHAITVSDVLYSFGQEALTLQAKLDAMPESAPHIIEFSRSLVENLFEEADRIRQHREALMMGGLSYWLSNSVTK
Assay: prenylation kinetics, Michaelis-Menten curve
Type: biochemical
Details: acceptor PalX; curve without saturation, poor water solubility

Row | SMILES | prenylation kinetics, Michaelis-Menten curve
1 | CC(C)=CCC/C(C)=C/CC/C(C)=C/COP(=O)(O)OP(=O)(O)O [FPP] | We then assessed the kinetics of PalQ for DMAPP, GPP, and FPP.
2 | CC(C)=CCC/C(C)=C/COP(=O)(O)OP(=O)(O)O [GPP] | We then assessed the kinetics of PalQ for DMAPP, GPP, and FPP.
